Read-outs that look alike come from different tables or passages of the source.
Tested on: genotype 1b (Con-1) HCV replicon
Test: HCV Replicon Luciferase Assay
Type: cell-based
Conditions: Hepatitis C virus, 72 h, Huh-7 genotype 1b replicon, Renilla luciferase, 3 days incubation
Protocol: The cell lines used to evaluate compounds consist of a human hepatocyte derived cell line (Huh-7) that constitutively expresses a genotype 1b (Con-1) HCV replicon or a genotype 1b (Con-1) HCV replicon with an asparagine replacing the cysteine at amino acid 316, or a genotype 2a (JFH-1) replicon, containing a Renilla luciferase reporter gene. These cells were maintained in Dulbecco's modified Eagle medium (DMEM) containing 10% FBS, 100 U/mL penicillin/streptomycin and 1.0 mg/mL G418.
To evaluate compound efficacy, titrated compounds were transferred to sterile 384-well tissue culture treated plates, and the plates were seeded with HCV replicon cells (50 μL at a density of 2.4×10^3 cells/well) in DMEM containing 4% FBS (final DMSO concentration at 0.5%). After 3 days incubation at 37° C., cells were analyzed for Renilla Luciferase activity using the EnduRen substrate (Promega cat #E6485) according to the manufacturer's directions. Briefly, the EnduRen substrate was diluted in DMEM and then added to the plates to a final concentration of 7.5 μM. The plates were incubated for at least 1 h at 37° C. then read on a Viewlux Imager (PerkinElmer) using a luminescence program. The 50% effective concentration (EC50) was calculated using the four-parameter logistic Formula noted above.
Compound EC50 data is expressed as A: <100 nM; B=100-1000 nM; C>1000 nM).

Row | SMILES | EC50 (read-out: EC50 1b (class)) [µM] | EC50 (read-out: EC50 (uM) 1b) [µM]
1 | CNC(=O)c1c(-c2ccc(F)cc2)oc2cc(N(CCF)S(C)(=O)=O)c(-c3cccc(C(=O)N4CCN(C(=O)OC(C)(C)C)CC4c4ccccc4)c3)cc12 (stereo not shown) [Compound 3031] | < 0.1 | 
2 | CNC(=O)c1c(-c2ccc(F)cc2)oc2cc(N(CCF)S(C)(=O)=O)c(-c3cccc(C(=O)N4CCN(c5cccnc5)CC4)c3)cc12 [Compound 3032] | > 1 | 2.64
3 | CNC(=O)c1c(-c2ccc(F)cc2)oc2cc(N(CCF)S(C)(=O)=O)c(-c3cccc(C(=O)N4CCN(CC(C)C)CC4)c3)cc12 [Compound 3033] | < 0.1 | 
4 | CNC(=O)c1c(-c2ccc(F)cc2)oc2cc(N(CCF)S(C)(=O)=O)c(-c3cccc(C(=O)N4CCC(c5ccc(F)cc5)C4)c3)cc12 (stereo not shown) [Compound 3034] | < 0.1 | 0.0117
5 | CNC(=O)c1c(-c2ccc(F)cc2)oc2cc(N(CCF)S(C)(=O)=O)c(-c3cccc(C(=O)N4CCC[C@H]4CO)c3)cc12 [Compound 3035] | 0.1 to 1 | 
6 | CNC(=O)c1c(-c2ccc(F)cc2)oc2cc(N(CCF)S(C)(=O)=O)c(-c3cccc(C(=O)N4CCC(NC(C)=O)C4)c3)cc12 (stereo not shown) [Compound 3036] | > 1 | 
7 | CNC(=O)c1c(-c2ccc(F)cc2)oc2cc(N(CCF)S(C)(=O)=O)c(-c3cccc(C(=O)N4CC[C@H](O)C4)c3)cc12 [Compound 3037] | > 1 | 
8 | CNC(=O)c1c(-c2ccc(F)cc2)oc2cc(N(CCF)S(C)(=O)=O)c(-c3cccc(C(=O)N4CC[C@@H](NC(=O)OC(C)(C)C)C4)c3)cc12 [Compound 3038] | < 0.1 | 
9 | CNC(=O)c1c(-c2ccc(F)cc2)oc2cc(N(CCF)S(C)(=O)=O)c(-c3cccc(C(=O)N4CCC(O)C4)c3)cc12 (stereo not shown) [Compound 3039] | > 1 | 1.61
10 | CNC(=O)c1c(-c2ccc(F)cc2)oc2cc(N(CCF)S(C)(=O)=O)c(-c3cccc(C(=O)N4CCC(c5cccc(Cl)c5)C4)c3)cc12 (stereo not shown) [Compound 3040] | < 0.1 | 0.0413
11 | CNC(=O)c1c(-c2ccc(F)cc2)oc2cc(N(CCF)S(C)(=O)=O)c(-c3cccc(C(=O)N4CCC[C@H]4C(=O)OC)c3)cc12 [Compound 3041] | 0.1 to 1 | 
12 | CNC(=O)c1c(-c2ccc(F)cc2)oc2cc(N(CCF)S(C)(=O)=O)c(-c3cccc(C(=O)N4CC(NC(=O)OC(C)(C)C)C4)c3)cc12 [Compound 3042] | 0.1 to 1 | 0.138
13 | CCCC1CN(C(=O)c2ccccc2)CCN1C(=O)c1cccc(-c2cc3c(C(=O)NC)c(-c4ccc(F)cc4)oc3cc2N(CCF)S(C)(=O)=O)c1 (stereo not shown) [Compound 3043] | < 0.1 | 
14 | CNC(=O)c1c(-c2ccc(F)cc2)oc2cc(N(CCF)S(C)(=O)=O)c(-c3cccc(C(=O)N4CCN(C(=O)OC(C)(C)C)CC4(C)C)c3)cc12 [Compound 3044] | < 0.1 | 
15 | CNC(=O)c1c(-c2ccc(F)cc2)oc2cc(N(CCCF)S(C)(=O)=O)c(-c3cccc(C(=O)O)c3)cc12 [Compound 4002] | > 1 | 
16 | CNC(=O)c1c(-c2ccc(F)cc2)oc2cc(N(CCCF)S(C)(=O)=O)c(-c3cccc(C(=O)NC(C)C(F)(F)F)c3)cc12 (stereo not shown) [Compound 4003] | < 0.1 | 0.0093
17 | CNC(=O)c1c(-c2ccc(F)cc2)oc2cc(N(CCCF)S(C)(=O)=O)c(-c3cccc(C(=O)NC(CF)(CF)CF)c3)cc12 [Compound 4004] | < 0.1 | 
18 | CNC(=O)c1c(-c2ccc(F)cc2)oc2cc(N(CCCF)S(C)(=O)=O)c(-c3cccc(C(=O)NC(C)(C)C(F)(F)F)c3)cc12 [Compound 4005] | < 0.1 | 
19 | [2H]C([2H])([2H])C(NC(=O)c1cccc(-c2cc3c(C(=O)NC)c(-c4ccc(F)cc4)oc3cc2N(CCCF)S(C)(=O)=O)c1)(C([2H])([2H])[2H])C([2H])([2H])[2H] [Compound 4006] | < 0.1 | 
20 | CNC(=O)c1c(-c2ccc(F)cc2)oc2cc(N(CCCF)S(C)(=O)=O)c(-c3cccc(C(=O)NCC(F)(F)C(F)(F)F)c3)cc12 [Compound 4007] | < 0.1 | 0.0053
21 | CNC(=O)c1c(-c2ccc(F)cc2)oc2cc(N(CCCF)S(C)(=O)=O)c(-c3cccc(C(=O)NC(C)(C)CF)c3)cc12 [Compound 4008] | < 0.1 | 
22 | CNC(=O)c1c(-c2ccc(F)cc2)oc2cc(N(CCCF)S(C)(=O)=O)c(-c3cccc(C(=O)NCC(C)(C)C)c3)cc12 [Compound 4009] | < 0.1 | 
23 | CNC(=O)c1c(-c2ccc(F)cc2)oc2cc(N(CCCF)S(C)(=O)=O)c(-c3cccc(C(=O)NCC(F)(F)F)c3)cc12 [Compound 4010] | < 0.1 | 

Row | SMILES | EC50 (read-out: EC50 1b (class)) [µM] | EC50 (read-out: EC50 (uM) 1b) [µM]
24 | CNC(=O)c1c(-c2ccc(F)cc2)oc2cc(N(CCCF)S(C)(=O)=O)c(-c3cccc(C(=O)NC(C)(C)C)c3)cc12 [Compound 4011] | < 0.1 | 
25 | C#CC(C)(C)NC(=O)c1cccc(-c2cc3c(C(=O)NC)c(-c4ccc(F)cc4)oc3cc2N(CCCF)S(C)(=O)=O)c1 [Compound 4012] | < 0.1 | 0.008
26 | CNC(=O)c1c(-c2ccc(F)cc2)oc2cc(N(CCCF)S(C)(=O)=O)c(-c3cccc(C(=O)NC(C)(C)C(=O)OC)c3)cc12 [Compound 4013] | < 0.1 | 
27 | CNC(=O)c1c(-c2ccc(F)cc2)oc2cc(N(CCCF)S(C)(=O)=O)c(-c3cccc(C(=O)NC4(C#N)CC4)c3)cc12 [Compound 4014] | < 0.1 | 
28 | CNC(=O)c1c(-c2ccc(F)cc2)oc2cc(N(CCCF)S(C)(=O)=O)c(-c3cccc(C(=O)NCC(C)C)c3)cc12 [Compound 4015] | < 0.1 | 0.0075
29 | CNC(=O)c1c(-c2ccc(F)cc2)oc2cc(N(CCCF)S(C)(=O)=O)c(-c3cccc(C(=O)NC4(C)CC4)c3)cc12 [Compound 4016] | < 0.1 | 
30 | CNC(=O)c1c(-c2ccc(F)cc2)oc2cc(N(CCCF)S(C)(=O)=O)c(-c3cccc(C(=O)NCC(C)(C)CO)c3)cc12 [Compound 4017] | < 0.1 | 
31 | CNC(=O)c1c(-c2ccc(F)cc2)oc2cc(N(CCCF)S(C)(=O)=O)c(-c3cccc(C(=O)NC(C)(C)CO)c3)cc12 [Compound 4018] | < 0.1 | 
32 | CNC(=O)c1c(-c2ccc(F)cc2)oc2cc(N(CCCF)S(C)(=O)=O)c(-c3cccc(C(=O)NCC(C)(F)F)c3)cc12 [Compound 4019] | < 0.1 | 0.0098
33 | CNC(=O)c1c(-c2ccc(F)cc2)oc2cc(N(CCCF)S(C)(=O)=O)c(-c3cccc(C(=O)NCC(F)F)c3)cc12 [Compound 4020] | < 0.1 | 
34 | CNC(=O)c1c(-c2ccc(F)cc2)oc2cc(N(CCCF)S(C)(=O)=O)c(-c3cccc(C(=O)N[C@@H](C)C(F)(F)F)c3)cc12 [Compound 4021] | < 0.1 | 
35 | CNC(=O)c1c(-c2ccc(F)cc2)oc2cc(N(CCCF)S(C)(=O)=O)c(-c3cccc(C(=O)NC4(C)CCC4)c3)cc12 [Compound 4022] | < 0.1 | 0.0077
36 | CNC(=O)c1c(-c2ccc(F)cc2)oc2cc(N(CCCF)S(C)(=O)=O)c(-c3cccc(C(=O)NC4(C(F)(F)F)CC4)c3)cc12 [Compound 4023] | < 0.1 | 
37 | CNC(=O)c1c(-c2ccc(F)cc2)oc2cc(N(CCCF)S(C)(=O)=O)c(-c3cccc(C(=O)NC(C)(C)C#N)c3)cc12 [Compound 4024] | < 0.1 | 
38 | CNC(=O)c1c(-c2ccc(F)cc2)oc2cc(N(CCCF)S(C)(=O)=O)c(-c3cccc(C(=O)NC(C4CC4)C4CC4)c3)cc12 [Compound 4025] | < 0.1 | 
39 | CNC(=O)c1c(-c2ccc(F)cc2)oc2cc(N(CCCF)S(C)(=O)=O)c(-c3cccc(C(=O)NC(C)(C)C(C)(C)C)c3)cc12 [Compound 4026] | < 0.1 | 
40 | CNC(=O)c1c(-c2ccc(F)cc2)oc2cc(N(CCCF)S(C)(=O)=O)c(-c3cccc(C(=O)NC(C)(C)CCO)c3)cc12 [Compound 4027] | < 0.1 | 
41 | C#CC(CC)(CC)NC(=O)c1cccc(-c2cc3c(C(=O)NC)c(-c4ccc(F)cc4)oc3cc2N(CCCF)S(C)(=O)=O)c1 [Compound 4028] | < 0.1 | 0.0056
42 | C#CC(C)(CC)NC(=O)c1cccc(-c2cc3c(C(=O)NC)c(-c4ccc(F)cc4)oc3cc2N(CCCF)S(C)(=O)=O)c1 (stereo not shown) [Compound 4029] | < 0.1 | 0.0059
43 | CNC(=O)c1c(-c2ccc(F)cc2)oc2cc(N(CCCF)S(C)(=O)=O)c(-c3cccc(C(=O)N[C@H](C)C(F)(F)F)c3)cc12 [Compound 4030] | < 0.1 | 
44 | CNC(=O)c1c(-c2ccc(F)cc2)oc2cc(NCCCF)c(-c3cccc(C(=O)NC(C)(C)C#N)c3)cc12 [Compound 5003] | < 0.1 | 
45 | CNC(=O)c1c(-c2ccc(F)cc2)oc2cc(NCCCF)c(-c3cccc(C(=O)NC(C)(C#N)C4CC4)c3)cc12 (stereo not shown) [Compound 5004] | < 0.1 | 
